# Molecular target: T1, Y2 receptors (Homo sapiens, UniProt P49146)
# T1 construct: endogenous in cells; host or cells: KAN-Ts cells (membranes)
# T1 sequence (P49146 1-381): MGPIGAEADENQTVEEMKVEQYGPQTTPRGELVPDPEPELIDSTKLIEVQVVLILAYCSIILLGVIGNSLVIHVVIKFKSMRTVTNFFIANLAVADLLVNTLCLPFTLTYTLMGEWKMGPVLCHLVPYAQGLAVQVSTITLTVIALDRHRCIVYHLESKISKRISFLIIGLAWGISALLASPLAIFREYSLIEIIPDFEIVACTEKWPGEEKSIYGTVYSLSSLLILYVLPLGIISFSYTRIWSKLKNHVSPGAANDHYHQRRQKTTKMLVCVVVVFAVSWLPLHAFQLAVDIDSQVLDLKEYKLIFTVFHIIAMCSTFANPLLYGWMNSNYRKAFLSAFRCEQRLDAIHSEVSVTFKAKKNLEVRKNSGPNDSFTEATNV
# Assay: Radioligand binding assay ([125I]PYY, KAN-Ts cell membranes)
# Conditions: Table 1, [125I]PYY 80 pM, average of results, read-out: IC50
# Protocol: Radioligand Binding Assay
# KAN-Ts endogenously expressing Y2 receptors were used for the radioligand binding assay. Cells were grown to confluence on 150 cm^2 tissue culture plates, washed with phosphate-buffered saline (PBS), and scraped into 50 mL tubes. After centrifugation, the supernatant was aspirated, and the pellets frozen and stored at −80° C. Thawed pellets were homogenized with a polytron tissue grinder for 15 sec in 20 mM Tris-HCl, 5 mM EDTA. The homogenate was centrifuged at 800×g for 5 min and the collected supernatant was recentrifuged at 25000×g for 25 min. The resulting pellet was resuspended in binding buffer (20 mM HEPES, 120 mM NaCl, 0.22 mM KH2PO4, 1.3 mM CaCl2, 0.8 mM MgSO4). Membranes were incubated with [^125I]PYY (80 pM) in the presence or absence of test compound for 1 h at rt. The reaction was stopped by filtration through GF/C filter plates pre-soaked in 0.3% polyethylenimine and subsequently washed with Tris 50 mM, 5 mM EDTA buffer. Plates were dried for 1 h in a 55° C. oven, scintillation fluid was added and the radioactivity was counted in a Packard TopCount. Specific binding to the NPY receptor subtypes was determined by radioactivity that was bound in the presence of […]. Each binding experiment was repeated three to eight times, each in duplicate. IC50 values (i.e. concentration of unlabelled peptide or antagonist required to compete for 50% of specific binding to the radioligand) were calculated using the GraphPad Prism software (GraphPad Software Inc., San Diego Calif.) with a fit to a sigmoidal dose response curve. Data for compounds tested are presented in Tables 1 and 2 as an average of results obtained.
row,SMILES,IC50
1,"CCC(CC)C(=O)Nc1cc(Cl)c(N2CCN(C(C(=O)OC)c3ccccc3)CC2)c(Cl)c1 (stereo not shown) [Example 41, {4-[2,6-Dichloro-4-(2-ethyl-butyrylamino)-phenyl]-piperazin-1-yl}-phenyl-acetic acid methyl ester]",77 nM
2,"CCNC(=O)C(c1ccccc1)N1CCN(c2ccc(NC(=O)C(CC)CC)c(F)c2)CC1 (stereo not shown) [Example 42, 2-Ethyl-N-{4-[4-(ethylcarbamoyl-phenyl-methyl)-piperazin-1-yl]-2-fluoro-phenyl}-butyramide]",4830 nM
3,"CCNC(=O)C(c1ccccc1)C1CCN(c2ccc(NC(=O)C(CC)CC)cc2C#N)CC1 (stereo not shown) [Example 43, N-{3-Cyano-4-[4-(ethylcarbamoyl-phenyl-methyl)-piperidin-1-yl]-phenyl}-2-ethyl-butyramide]",14 nM
4,"CCC(CC)C(=O)Nc1ccc(N2CCN(C(C(=O)OC)c3ccccc3)CC2)c(F)c1 (stereo not shown) [Example 44, {4-[4-(2-Ethyl-butyrylamino)-2-fluoro-phenyl]-piperazin-1-yl}-phenyl-acetic acid methyl ester]",131 nM
5,"COC(=O)C(c1ccccc1)N1CCN(c2ccc(NC(=O)C3Cc4ccccc43)cc2)CC1 (stereo not shown) [Example 45, (4-{4-[(Bicyclo[4.2.0]octa-1 (6),2,4-triene-7-carbonyl)-amino]-phenyl}-piperazin-1-yl)-phenyl-acetic acid methyl ester]",4000 nM
6,"COC(=O)C(c1ccccc1)N1CCN(c2ccc(NC(=O)c3ccccc3I)cc2)CC1 (stereo not shown) [Example 46, {4-[4-(2-Iodo-benzoylamino)-phenyl]-piperazin-1-yl}-phenyl-acetic acid methyl ester]",6000 nM
7,"COC(=O)C(c1ccccc1)N1CCN(c2ccc(NC(=O)c3ccccc3)cc2)CC1 (stereo not shown) [Example 47, [4-(4-Benzoylamino-phenyl)-piperazin-1-yl]-phenyl-acetic acid methyl ester]",10000 nM
8,"COC(=O)C(c1ccccc1)N1CCN(c2ccc(NC(=O)c3ccccc3C3CCCCC3)cc2)CC1 (stereo not shown) [Example 49, {4-[4-(2-Cyclohexyl-benzoylamino)-phenyl]-piperazin-1-yl}-phenyl-acetic acid methyl ester]",1300 nM
9,"COC(=O)C(c1ccccc1)N1CCN(c2ccc(NC(=O)c3ccccc3C)cc2)CC1 (stereo not shown) [Example 50, {4-[4-(2-Methyl-benzoylamino)-phenyl]-piperazin-1-yl}-phenyl-acetic acid methyl ester]",1800 nM
10,"CCc1ccccc1C(=O)Nc1ccc(N2CCN(C(C(=O)OC)c3ccccc3)CC2)cc1 (stereo not shown) [Example 51, {4-[4-(2-Ethyl-benzoylamino)-phenyl]-piperazin-1-yl}-phenyl-acetic acid methyl ester]",1850 nM
11,"COC(=O)C(c1ccccc1)N1CCN(c2ccc(NC(=O)c3ccccc3C(C)C)cc2)CC1 (stereo not shown) [Example 52, {4-[4-(2-Isopropyl-benzoylamino)-phenyl]-piperazin-1-yl}-phenyl-acetic acid methyl ester]",1400 nM
12,"COC(=O)C(c1ccccc1)N1CCN(c2ccc(NC(=O)c3ccccc3Cl)cc2)CC1 (stereo not shown) [Example 53, {4-[4-(2-Chloro-benzoylamino)-phenyl]-piperazin-1-yl}-phenyl-acetic acid methyl ester]",12600 nM
13,"COC(=O)C(c1ccccc1)N1CCN(c2ccc(NC(=O)c3ccccc3OC)cc2)CC1 (stereo not shown) [Example 56, {4-[4-(2-Methoxy-benzoylamino)-phenyl]-piperazin-1-yl}-phenyl-acetic acid methyl ester]",4000 nM
14,"CNc1ccccc1C(=O)Nc1ccc(N2CCN(C(C(=O)OC)c3ccccc3)CC2)cc1 (stereo not shown) [Example 58, {4-[4-(2-Methylamino-benzoylamino)-phenyl]-piperazin-1-yl}-phenyl-acetic acid methyl ester]",3000 nM
15,"COC(=O)C(c1ccccc1)N1CCN(c2ccc(NC(=O)C3CCCC3)cc2)CC1 (stereo not shown) [Example 59, {4-[4-(Cyclopentanecarbonyl-amino)-phenyl]-piperazin-1-yl}-phenyl-acetic acid methyl ester]",13100 nM
16,"CCC(CC)C(=O)Nc1ccc(N2CCN(C(C(=O)OC)c3ccccc3)CC2)cc1 (stereo not shown) [Example 60, {4-[4-(2-Ethyl-butyrylamino)-phenyl]-piperazin-1-yl}-phenyl-acetic acid methyl ester]",527 nM
17,"COC(=O)C(c1ccccc1)N1CCN(c2ccc(NC(=O)c3ccccc3)cc2F)CC1 (stereo not shown) [Example 61, [4-(4-Benzoylamino-2-fluoro-phenyl)-piperazin-1-yl]-phenyl-acetic acid methyl ester]",2500 nM
18,"COC(=O)C(c1ccccc1)N1CCN(c2ccc(NC(=O)c3ccccc3C)cc2F)CC1 (stereo not shown) [Example 62, {4-[2-Fluoro-4-(2-methyl-benzoylamino)-phenyl]-piperazin-1-yl}-phenyl-acetic acid methyl ester]",1300 nM
19,"CCc1ccccc1C(=O)Nc1ccc(N2CCN(C(C(=O)OC)c3ccccc3)CC2)c(F)c1 (stereo not shown) [Example 63, {4-[4-(2-Ethyl-benzoylamino)-2-fluoro-phenyl]-piperazin-1-yl}-phenyl-acetic acid methyl ester]",600 nM
20,"COC(=O)C(c1ccccc1)N1CCN(c2ccc(NC(=O)c3ccccc3C(C)C)cc2F)CC1 (stereo not shown) [Example 64, {4-[2-Fluoro-4-(2-isopropyl-benzoylamino)-phenyl]-piperazin-1-yl}-phenyl-acetic acid methyl ester]",1000 nM
21,"COC(=O)C(c1ccccc1)N1CCN(c2ccc(NC(=O)c3ccccc3OC)cc2F)CC1 (stereo not shown) [Example 65, {4-[2-Fluoro-4-(2-methoxy-benzoylamino)-phenyl]-piperazin-1-yl}-phenyl-acetic acid methyl ester]",1300 nM
22,"CNc1ccccc1C(=O)Nc1ccc(N2CCN(C(C(=O)OC)c3ccccc3)CC2)c(F)c1 (stereo not shown) [Example 68, {4-[2-Fluoro-4-(2-methylamino-benzoylamino)-phenyl]-piperazin-1-yl}-phenyl-acetic acid methyl ester]",1400 nM
23,"CCc1cccc(C(=O)Nc2ccc(N3CCN(C(C(=O)OC)c4ccccc4)CC3)cc2)c1 (stereo not shown) [Example 69, {4-[4-(3-Ethyl-benzoylamino)-phenyl]-piperazin-1-yl}-phenyl-acetic acid methyl ester]",25000 nM
24,"COC(=O)C(c1ccccc1)N1CCN(c2ccc(NC(=O)c3cccc(C)c3)cc2)CC1 (stereo not shown) [Example 72, {4-[4-(3-Methyl-benzoylamino)-phenyl]-piperazin-1-yl}-phenyl-acetic acid methyl ester]",6000 nM
25,"COC(=O)C(c1ccccc1)N1CCN(c2ccc(NC(=O)CCC(C)C)cc2F)CC1 (stereo not shown) [Example 78, {4-[2-Fluoro-4-(4-methyl-pentanoylamino)-phenyl]-piperazin-1-yl}-phenyl-acetic acid methyl ester]",230 nM
26,"CCCCC(CC)C(=O)Nc1ccc(N2CCN(C(C(=O)OC)c3ccccc3)CC2)c(F)c1 (stereo not shown) [Example 79, {4-[4-(2-Ethyl-hexanoylamino)-2-fluoro-phenyl]-piperazin-1-yl}-phenyl-acetic acid methyl ester]",100 nM
27,"CCCCC(CC)C(=O)Nc1ccc(N2CCN(C(C(=O)OC)c3ccccc3)CC2)cc1 (stereo not shown) [Example 82, {4-[4-(2-Ethyl-hexanoylamino)-phenyl]-piperazin-1-yl}-phenyl-acetic acid methyl ester]",400 nM
28,"CCCCCC(=O)Nc1ccc(N2CCN(C(C(=O)OC)c3ccccc3)CC2)cc1 (stereo not shown) [Example 83, [4-(4-Hexanoylamino-phenyl)-piperazin-1-yl]-phenyl-acetic acid methyl ester]",3600 nM
